Like-named read-outs stand apart in the source and are kept apart here.
How the values were obtained:
[1] = Plasma pharmacokinetics, repeated once-daily administration to healthy adult men; type: in vivo, human; conditions: first day of administration
[2] = Phase I drug-drug interaction study with sevelamer carbonate; type: in vivo, human; conditions: for clearance: read-out: Clearance (ClB) (converted); for Vd: read-out: Volume of distribution (Vc); for Tmax: median (minimum, maximum)
Description: A phase I, open-label, fixed-sequence study was conducted in healthy adult subjects to assess the effect of sevelamer carbonate as phosphate binders on the pharmacokinetics of a single dose of vadadustat.
Pharmacokinetics. A predose PK blood sample was collected on Day 1. After each dose of vadadustat administered (Days 1, 3, 5, and 7), blood samples for PK analysis were collected at the following time points: predose and 0.5, 1, 1.5, 2, 3, 4, 6, 9, 12, 16, 24, and 48 hours after each dose of vadadustat. The 48-hour postdose sample was collected before vadadustat administration on Days 3, 5, and 7. The following parameters were calculated and analyzed: AUC0-∞, AUC0-last, Cmax, Tmax, Kel, CIB, Vc/F, and t1/2.
Subjects were dosed approximately at the same designated time on each dosing day, where applicable. Study drugs were administered with approximately 8 ounces (240 mL) of water at room temperature in a seated position. Subjects were instructed to drink the full 8 ounces of water, and not to chew or break the tablets/gelcaps.
A single oral dose of vadadustat 300 mg (2×150 mg tablets) was administered on Days 1, 3, 5, and 7. Phosphate binder that is sevelamer carbonate (1600 mg, 2×800 mg tablets) was administered on Days 3, 5, and 7.
The 9-day treatment period was conducted as follows: • Day 1: vadadustat administered immediately after consuming breakfast. • Day 2: wash-out (no investigational product administration). • Day 3: vadadustat administered concomitantly with the requisite phosphate binder immediately after consuming breakfast. • Day 4: wash-out (no investigational product administration). • Day 5: vadadustat administered in fasted condition and the phosphate binder administered 1 hour later (breakfast must be served within 2 minutes after phosphate binder administration and consumed immediately after it is served). • Day 6: wash-out (no investigational product administration). • Day 7: phosphate binder administered immediately after consuming breakfast; vadadustat administered 2 hours after the phosphate binder was administered. • Day 8: wash-out (no investigational product administration). • Day 9: subjects discharged from the Clinical Research Unit (CRU) after the 48-hour postdose PK blood sample has been collected.

UGT1A1 = biological target: T1, UGT1A1 (Homo sapiens, UniProt P22309); test: Enzyme inhibition (in vitro); type: in vitro ADME
T1 sequence (P22309 26-533): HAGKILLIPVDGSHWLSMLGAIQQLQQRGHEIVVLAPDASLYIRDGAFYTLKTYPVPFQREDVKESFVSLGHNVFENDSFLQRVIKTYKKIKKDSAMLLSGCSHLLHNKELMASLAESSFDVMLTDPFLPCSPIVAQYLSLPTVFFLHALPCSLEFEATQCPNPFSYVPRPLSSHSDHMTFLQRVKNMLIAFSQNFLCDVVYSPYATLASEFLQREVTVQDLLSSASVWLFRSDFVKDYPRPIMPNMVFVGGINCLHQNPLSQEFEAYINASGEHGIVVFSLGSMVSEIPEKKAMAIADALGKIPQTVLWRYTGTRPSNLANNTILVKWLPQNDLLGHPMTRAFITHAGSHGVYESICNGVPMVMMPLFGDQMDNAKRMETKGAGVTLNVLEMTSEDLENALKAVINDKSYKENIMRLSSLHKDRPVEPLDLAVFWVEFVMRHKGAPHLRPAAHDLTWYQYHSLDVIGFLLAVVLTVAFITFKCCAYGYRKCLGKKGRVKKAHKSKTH

[3] = [14C]-labeled Compound 1 metabolism and excretion study in healthy adult males; type: in vivo, human
Excerpt: The urinary excretion rate of this drug and acyl glucuronide is less than 1% of the total radioactivity.

[4] = Phase III clinical trial in patients with hemodialysis anemia; type: in vivo, human
Description: The incidence of adverse reactions when this drug was administered up to 24 weeks was 8.3% (2/24 cases).

[5] = concomitant administration of phosphate binder vs vadadustat alone, ANOVA
[6] = human, plasma, oral, 300 mg, vadadustat 300 mg alone, immediately after breakfast, mean ± SD
[7] = human, plasma, oral, vadadustat 300 mg 2 hours after sevelamer carbonate 1600 mg with breakfast, mean ± SD
[8] = human, plasma, oral, vadadustat 300 mg concomitantly with sevelamer carbonate 1600 mg, immediately after breakfast, mean ± SD
[9] = human, plasma, oral, vadadustat 300 mg fasting, 1 hour prior to sevelamer carbonate 1600 mg, mean ± SD
[10] = vadadustat 300 mg alone, immediately after breakfast, mean ± SD

Question: Which results are given for `O=C(O)CNC(=O)c1ncc(-c2cccc(Cl)c2)cc1O` [Compound 1, {[5-(3-chlorophenyl)-3-hydroxypyridine-2-carbonyl]amino}acetic acid]?
Answer: Tmax ([1]; 300 mg once a day): 1.95 h; t1/2 ([1]; 300 mg once a day): 6.14 ± 0.763 h; Tmax ([1]; 600 mg once a day): 1.98 h; reduction of vadadustat AUC0-last [2, 5]: about 37%; reduction of vadadustat AUC0-∞ [2, 5]: about 37%; reduction of vadadustat Cmax [2, 5]: about 40%; AUC(0-t) [2, 6]: 185 ± 57.3 µg·h/mL; AUC(0-inf) ([2]; human, plasma, oral, 300 mg, vadadustat 300 mg alone, immediately after breakfast, mean ± SD, read-out: AUC0-∞): 190 ± 57.2 µg·h/mL; clearance [2, 6]: 28.8 mL/min; Vd [2, 6]: 11.5 ± 2.84 L; Tmax ([2]; human, plasma, oral, 300 mg, vadadustat 300 mg alone, immediately after breakfast): 3.97 h; AUC(0-inf) ([2]; human, plasma, oral, concurrent vadadustat and sevelamer carbonate, read-out: geometric LS mean AUC0-∞): 114 µg·h/mL; AUC(0-t) [2, 7]: 151 ± 57.5 µg·h/mL; AUC(0-inf) ([2]; human, plasma, oral, vadadustat 300 mg 2 hours after sevelamer carbonate 1600 mg with breakfast, mean ± SD, read-out: AUC0-∞): 154 ± 57.8 µg·h/mL; clearance [2, 7]: 38.3 mL/min; half-life ([2]; human, plasma, oral, vadadustat 300 mg 2 hours after sevelamer carbonate 1600 mg with breakfast, mean ± SD, read-out: Elimination half-life (t1/2) (converted)): 5.1 ± 0.97 h; Vd [2, 7]: 16.4 ± 7.04 L; Tmax ([2]; human, plasma, oral, vadadustat 300 mg 2 hours after sevelamer carbonate 1600 mg with breakfast): 2.99 h; AUC(0-t) [2, 8]: 121 ± 50.4 µg·h/mL; AUC(0-inf) ([2]; human, plasma, oral, vadadustat 300 mg concomitantly with sevelamer carbonate 1600 mg, immediately after breakfast, mean ± SD, read-out: AUC0-∞): 124 ± 51 µg·h/mL; clearance [2, 8]: 48 mL/min; Cmax ([2]; human, plasma, oral, vadadustat 300 mg concomitantly with sevelamer carbonate 1600 mg, immediately after breakfast, mean ± SD, read-out: Cmax): 16600 ± 5750 ng/mL; Vd [2, 8]: 19.4 ± 10.1 L; Tmax ([2]; human, plasma, oral, vadadustat 300 mg concomitantly with sevelamer carbonate 1600 mg, immediately after breakfast): 3.49 h; AUC(0-t) [2, 9]: 152 ± 46.2 µg·h/mL; AUC(0-inf) ([2]; human, plasma, oral, vadadustat 300 mg fasting, 1 hour prior to sevelamer carbonate 1600 mg, mean ± SD, read-out: AUC0-∞): 156 ± 48.5 µg·h/mL; clearance [2, 9]: 35.7 mL/min; Cmax ([2]; human, plasma, oral, vadadustat 300 mg fasting, 1 hour prior to sevelamer carbonate 1600 mg, mean ± SD, read-out: Cmax): 31300 ± 10600 ng/mL; Vd [2, 9]: 13.6 ± 5.04 L; Tmax ([2]; human, plasma, oral, vadadustat 300 mg fasting, 1 hour prior to sevelamer carbonate 1600 mg): 1.49 h; Cmax [2, 10]: 26700 ± 6610 ng/mL; Elimination half-life (t1/2) [2, 10]: 4.81 ± 1.15 h; Elimination half-life (t1/2) ([2]; vadadustat 300 mg concomitantly with sevelamer carbonate 1600 mg, immediately after breakfast, mean ± SD): 4.70 ± 0.90 h; changes in vadadustat exposure ([2]; vadadustat administered 1 hour prior to sevelamer carbonate): within the prespecified no-effect boundaries of 80% to 125%; changes in vadadustat exposure ([2]; vadadustat administered 2 hours after sevelamer carbonate): within the prespecified no-effect boundaries of 80% to 125%; inhibitory effect on UGT1A1 (UGT1A1): inhibitory effect; share of the total radioactivity (AUC0-∞) in plasma ([3]; healthy adult male (6), single oral 650 mg [14C]-labeled Compound 1): 75%; total radioactivity administered recovered in urine ([3]; single dose 650 mg [14C]-labeled, by 72 hours after administration): 58.9%; incidence of adverse reactions ([4]; administered up to 24 weeks (2/24 cases)): 8.3%; hemoglobin level before administration ([4]; baseline, 23 people, mean ± standard deviation): 9.30 ± 0.67

Source: patent US20240148707A1, “MODULATION OF DRUG-DRUG INTERACTIONS OF VADADUSTAT” (Akebia Therapeutics, Inc., priority 2021, published 2024)
